Measured values taken from patent publication US20240158446A1, “CYCLIC COMPOUND HAVING SELECTIVE INHIBITORY ACTION ON KRAS OVER HRAS AND NRAS” (CHUGAI SEIYAKU KABUSHIKI KAISHA, priority 2021, published 2024).
*1 amine or outer side, *2 acyl side, *3 side chain or, on linkers, in order; H or OH if unused. Where a SMILES comes first, the peptide text is derived from it. Bridges are numbered along the chain shown (N, C = ends). [ ]: non-standard residue; d: D form. The star is where a group is joined. hPhe(3-Cl-4-CF3) = N[C@@H](CCc1ccc(C(F)(F)F)c(Cl)c1)C(=O)O; NPrPhe(4-CF3) = CCCN[C@@H](Cc1ccc(C(F)(F)F)cc1)C(=O)O; NEtAsp = CCN([C@@H](CC(=O)[*:3])C(=O)[*:2])[*:1]; NMeGly(cPent) = CN[C@H](C(=O)O)C1CCCC1; NMeL = CN[C@@H](CC(C)C)C(=O)O; Morpholide = C1CN(*)CCO1; Ac5c = NC1(C(=O)O)CCCC1; Sar = CNCC(=O)O

Key:
[1] = molecular target: GDP-bound KRAS wild-type protein (Homo sapiens, UniProt P01116); assay: Binding to KRAS by surface plasmon resonance (SPR), Single Cycle Kinetics; settings: SPR, Single Cycle Kinetics, GDP-bound KRAS wild-type protein; read-out: KRAS KD
GDP-bound KRAS wild-type protein, sequence (P01116 whole entry): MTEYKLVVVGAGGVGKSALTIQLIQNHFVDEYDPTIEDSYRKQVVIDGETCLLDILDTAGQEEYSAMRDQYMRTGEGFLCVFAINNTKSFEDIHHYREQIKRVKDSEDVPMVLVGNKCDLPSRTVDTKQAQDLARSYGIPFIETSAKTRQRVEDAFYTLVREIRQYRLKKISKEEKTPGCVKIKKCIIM

[2] = molecular target: GDP-bound NRAS wild-type protein (Homo sapiens, UniProt P01111); assay: Binding to NRAS by surface plasmon resonance (SPR), Single Cycle Kinetics; settings: ratio of KD for GDP-bound NRAS wild-type protein to KD for KRAS, SPR
GDP-bound NRAS wild-type protein, sequence (P01111 whole entry): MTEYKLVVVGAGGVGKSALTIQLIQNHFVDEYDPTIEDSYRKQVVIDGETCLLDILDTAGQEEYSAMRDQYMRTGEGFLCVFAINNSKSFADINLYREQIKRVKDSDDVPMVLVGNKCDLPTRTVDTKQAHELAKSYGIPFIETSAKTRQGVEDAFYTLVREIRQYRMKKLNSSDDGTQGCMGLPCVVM

[3] = molecular target: GDP-bound HRAS wild-type protein (Homo sapiens, UniProt P01112); assay: Binding to HRAS by surface plasmon resonance (SPR), Single Cycle Kinetics; settings: ratio of KD for GDP-bound HRAS wild-type protein to KD for KRAS, SPR
GDP-bound HRAS wild-type protein, sequence (P01112 whole entry): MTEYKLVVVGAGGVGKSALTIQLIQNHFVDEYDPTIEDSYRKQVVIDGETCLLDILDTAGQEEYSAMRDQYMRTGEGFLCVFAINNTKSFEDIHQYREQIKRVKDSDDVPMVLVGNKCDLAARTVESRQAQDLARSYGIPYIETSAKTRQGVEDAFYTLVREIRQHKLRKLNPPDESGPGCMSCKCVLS

[4] = test system: human lung cancer strain NCI-H441; assay: cells; settings: NCI-H441, 96 h, read-out: NCI-H441 IC50 (nM), NCI-H441 cell proliferation, 4 days, CellTiter-Glo;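 also: cell proliferation inhibition after four days measured by CellTiter-Glo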

Row | Kd [1] [nM] | IC50 [4] [nM] | SMILES | NRAS/KRAS (KD ratio) [2] | HRAS/KRAS (KD ratio) [3]
1 | 0.29 | 2.6 | CCC[C@H]1C(=O)N[C@@H]([C@@H](C)CC)C(=O)N(C)CC(=O)N(C)[C@H]2C/C=C\CCN(C2=O)[C@@H](Cc2ccc(C)cc2)C(=O)N(C)CC(=O)N[C@@H](CCc2ccc(C(F)(F)F)c(OC)c2)C(=O)N2C[C@H](C)C[C@H]2C(=O)NC2(CC(C)(C)C2)C(=O)N(C)[C@@H](C2CCCC2)C(=O)N(C)[C@H](C(=O)N(C)CC)CC(=O)N1C [PP1891] | A (a compound having 10 or more and less than 20 is denoted as A) | A (a compound having 10 or more and less than 20 is denoted as A)
2 | 0.19 | 14.8 | CCO[C@@H]1C[C@H]2C(=O)NC3(CC(C)(C)C3)C(=O)N(C)[C@@H](C3CCCC3)C(=O)N(C)[C@H](C(=O)N3CCCC3)CC(=O)N(C)[C@@H](CC)C(=O)N[C@@H]([C@@H](C)CC)C(=O)N(C)CC(=O)N(C)[C@H]3C/C=C\CCN(C3=O)[C@@H](Cc3ccc(C(F)(F)F)cc3)C(=O)N(C)CC(=O)N[C@@H](CCc3cc(F)c(C(F)(F)F)c(F)c3)C(=O)N2C1 [PP1944] | A (a compound having 10 or more and less than 20 is denoted as A) | A (a compound having 10 or more and less than 20 is denoted as A)
3 | 0.23 | 18.3 | CC[C@H](C)[C@@H]1NC(=O)[C@H](CC(C)C)N(C)C(=O)C[C@@H](C(=O)N(CC)CC)N(C)C(=O)[C@H](C2CCCC2)N(C)C(=O)C2(CCC2)NC(=O)[C@@H]2C[C@H](C)CN2C(=O)[C@H](CCc2ccc(C(F)(F)F)c(OC)c2)NC(=O)CN(C)C(=O)[C@H](Cc2ccc(C)cc2)N2CC/C=C\C[C@@H](C2=O)N(C)C(=O)CN(C)C1=O [PP1885] | AA (a compound having 20 or more is denoted as AA) | A (a compound having 10 or more and less than 20 is denoted as A)
4 | 0.11 | 10.1 | CC[C@H](C)[C@@H]1NC(=O)[C@H](CC(C)C)N(C)C(=O)C[C@@H](C(=O)N(C)C)N(C)C(=O)[C@H](C2CCCC2)N(C)C(=O)C2(CC(C)(C)C2)NC(=O)[C@@H]2C[C@@H](C)CN2C(=O)[C@H](CCc2ccc(C(F)(F)F)c(OC)c2)NC(=O)CN(C)C(=O)[C@H](Cc2ccc(C)cc2)N2CC/C=C\C[C@@H](C2=O)N(C)C(=O)CN(C)C1=O [PP1908] | A (a compound having 10 or more and less than 20 is denoted as A) | B (a compound having 3 or more and less than 10 is denoted as B)
5 | 0.28 | 24 | CCO[C@@H]1C[C@H]2C(=O)NC3(CC(C)(C)C3)C(=O)N(C)[C@@H](C3CCCC3)C(=O)N(C)[C@H](C(=O)N(CC)CC)CC(=O)N(C)[C@@H](CC)C(=O)N[C@@H]([C@@H](C)CC)C(=O)N(C)CC(=O)N(C)[C@H]3C/C=C\CCN(C3=O)[C@@H](Cc3ccc(C)cc3)C(=O)N(C)CC(=O)N[C@@H](CCc3ccc(C(F)(F)F)c(Cl)c3)C(=O)N2C1 [PP1883] | A (a compound having 10 or more and less than 20 is denoted as A) | A (a compound having 10 or more and less than 20 is denoted as A)
6 | 0.62 | 16.8 | CCCN1C(=O)CN(C)C(=O)CNC(=O)[C@H]([C@@H](C)CC)NC(=O)[C@H](CC(C)C)N(C)C(=O)C[C@@H](C(=O)N2CCOCC2)N(CC)C(=O)[C@H](C2CCCC2)N(C)C(=O)C2(CCCC2)NC(=O)[C@@H]2CCCN2C(=O)[C@H](CCc2ccc(C(F)(F)F)c(Cl)c2)NC(=O)CN(C)C(=O)[C@@H]1Cc1ccc(C(F)(F)F)cc1 [PP1970] ([NMeL]IG[Sar][NPrPhe(4-CF3)][Sar][hPhe(3-Cl-4-CF3)]P[Ac5c][NMeGly(cPent)][NEtAsp]-Morpholide; lactam N-11) | B (a compound having 3 or more and less than 10 is denoted as B) | B (a compound having 3 or more and less than 10 is denoted as B)

Second part, the compound before the results:

Row | SMILES | Kd [1] [nM] | IC50 [4] [nM] | NRAS/KRAS (KD ratio) [2] | HRAS/KRAS (KD ratio) [3]
7 | CCCN(C)C(=O)[C@@H]1CC(=O)N(C)[C@@H](C)C(=O)N[C@@H]([C@@H](C)CC)C(=O)N(C)CC(=O)N(C)[C@H]2C/C=C\CCN(C2=O)[C@@H](Cc2ccc(C(F)(F)F)cc2)C(=O)N(C)CC(=O)N[C@@H](CCc2cc(F)c(C(F)(F)F)c(F)c2)C(=O)N2C[C@H](OCC)C[C@H]2C(=O)NC2(CC(F)(F)C2)C(=O)N(C)[C@@H](C2CCCC2)C(=O)N1C [PP1731] | 0.07 | 7.4 | A (a compound having 10 or more and less than 20 is denoted as A) | A (a compound having 10 or more and less than 20 is denoted as A)
8 | CC[C@H](C)[C@@H]1NC(=O)[C@H](CC(C)C)N(C)C(=O)C[C@@H](C(=O)N(C)C)N(C)C(=O)[C@H](C2CCCC2)N(C)C(=O)C2(CC(C)(C)C2)NC(=O)[C@@H]2C[C@H](C)CN2C(=O)[C@H](CCc2cc(F)c(C(F)(F)F)c(F)c2)NC(=O)CN(C)C(=O)[C@H](Cc2ccc(C(F)(F)F)cc2)N2CC/C=C\C[C@@H](C2=O)N(C)C(=O)CN(C)C1=O [PP1662] | 0.14 | 6.4 | A (a compound having 10 or more and less than 20 is denoted as A) | B (a compound having 3 or more and less than 10 is denoted as B)
9 | CCCN(C)C(=O)[C@@H]1CC(=O)N(C)[C@@H](C)C(=O)N[C@@H]([C@@H](C)CC)C(=O)N(C)CC(=O)N(C)[C@H]2C/C=C\CCN(C2=O)[C@@H](Cc2ccc(C(F)(F)F)cc2)C(=O)N(C)CC(=O)N[C@@H](CCc2cc(F)c(C(F)(F)F)c(F)c2)C(=O)N2C[C@H](OCC)C[C@H]2C(=O)NC2(CCC2)C(=O)N(C)[C@@H](C2CCCC2)C(=O)N1C [PP1666] | 0.076 | 8.1 | A (a compound having 10 or more and less than 20 is denoted as A) | A (a compound having 10 or more and less than 20 is denoted as A)
10 | CCO[C@@H]1C[C@H]2C(=O)NC3(CC(C)(C)C3)C(=O)N(C)[C@@H](C3CCCC3)C(=O)N(C)[C@H](C(=O)N(C)C)CC(=O)N(C)[C@@H](CC(F)F)C(=O)N[C@@H]([C@@H](C)CC)C(=O)N(C)CC(=O)N(C)[C@H]3C/C=C\CCN(C3=O)[C@@H](Cc3ccc(C(F)(F)F)cc3)C(=O)N(C)CC(=O)N[C@@H](CCc3ccc(C(F)(F)F)c(Cl)c3)C(=O)N2C1 [PP1747] | 0.058 | 2.3 | A (a compound having 10 or more and less than 20 is denoted as A) | A (a compound having 10 or more and less than 20 is denoted as A)
11 | CCO[C@@H]1C[C@H]2C(=O)N(C)C3(CCCC3)C(=O)N(C)[C@@H](C3CCCC3)C(=O)N(C)[C@H](C(=O)N(C)C)CC(=O)N(C)[C@@H](CC)C(=O)N[C@@H]([C@@H](C)CC)C(=O)N(C)CC(=O)N(C)[C@H]3C/C=C\CCN(C3=O)[C@@H](Cc3ccc(C(F)(F)F)cc3)C(=O)N(C)CC(=O)N[C@@H](CCc3cc(F)c(C(F)(F)F)c(F)c3)C(=O)N2C1 [PP1804] | 0.056 | 3.5 | A (a compound having 10 or more and less than 20 is denoted as A) | A (a compound having 10 or more and less than 20 is denoted as A)
12 | CCO[C@@H]1C[C@H]2C(=O)NC3(CCC3)C(=O)N(C)[C@@H](C(CC)CC)C(=O)N(C)[C@H](CC)CC(=O)N(C)[C@@H](CC)C(=O)N[C@@H]([C@@H](C)CC)C(=O)N(C)CC(=O)N(C)[C@H]3C/C=C\CCN(C3=O)[C@@H](Cc3ccc(C(F)(F)F)cc3)C(=O)N(C)CC(=O)N[C@@H](CCc3cc(F)c(C(F)(F)F)c(F)c3)C(=O)N2C1 [PP1624] | 1.1 | 55.8 | A (a compound having 10 or more and less than 20 is denoted as A) | A (a compound having 10 or more and less than 20 is denoted as A)
13 | CCC[C@H]1C(=O)N[C@@H]([C@@H](C)CC)C(=O)N(C)CC(=O)N(C)[C@H]2C/C=C\CCN(C2=O)[C@@H](Cc2ccc(C(F)(F)F)cc2)C(=O)N(C)CC(=O)N[C@@H](CCc2cc(F)c(C(F)(F)F)c(F)c2)C(=O)N2C[C@H](OCC)C[C@H]2C(=O)NC2(CC(C)(C)C2)C(=O)N(C)[C@@H](C2CCCC2)C(=O)N(C)[C@H](C(=O)N(C)CC)CC(=O)N1C [PP1646] | 0.12 | 2.8 | A (a compound having 10 or more and less than 20 is denoted as A) | A (a compound having 10 or more and less than 20 is denoted as A)
14 | CC[C@H](C)[C@@H]1NC(=O)[C@H](CC(C)C)N(C)C(=O)C[C@@H](C(=O)N(C)C)N(C)C(=O)[C@H](C2CCCC2)N(C)C(=O)C2(CCC2)NC(=O)[C@@H]2C[C@@H](C)CN2C(=O)[C@H](CCc2cc(F)c(C(F)(F)F)c(F)c2)NC(=O)CN(C)C(=O)[C@H](Cc2ccc(C)cc2)N2CC/C=C\C[C@@H](C2=O)N(C)C(=O)CN(C)C1=O [PP1866] | 0.093 | 11.1 | A (a compound having 10 or more and less than 20 is denoted as A) | B (a compound having 3 or more and less than 10 is denoted as B)
15 | CCCOC[C@H]1C(=O)N[C@@H]([C@@H](C)CC)C(=O)N(C)CC(=O)N(C)[C@H]2C/C=C\CCN(C2=O)[C@@H](Cc2ccc(C(F)(F)F)cc2)C(=O)N(C)CC(=O)N[C@@H](CCc2cc(F)c(C(F)(F)F)c(F)c2)C(=O)N2C[C@H](F)C[C@H]2C(=O)NC2(CC(C)(C)C2)C(=O)N(C)[C@@H](C2CCCC2)C(=O)N(C)[C@H](C(=O)N(C)CCC)CC(=O)N1C [PP1698] | 0.075 | 5.1 | A (a compound having 10 or more and less than 20 is denoted as A) | A (a compound having 10 or more and less than 20 is denoted as A)
